Test results from article PMC12932713, “Structure-activity relationship of prevalent synthetic cannabinoid metabolites on hCB1 in vitro and in silico dynamics” (Acta Pharmacologica Sinica, 2025).
Values joined by “and” are separate entries in the source; they are usually repeats but may differ in a detail not shown here. Equal entries are not always repeated.

Key:
hCB1 receptor = hCB1 receptor (Homo sapiens, UniProt P21554); experiment: AequoScreen hCB1 receptor assay (flash luminescence, recombinant CHO-K1 cells); details: for Emax: CHO-K1, read-out: Efficacy (% JWH-018 activity), Emax, Emax from dose-response curves, normalized to JWH-018 at 20 µg/mL; for Emax / Efficacy (% JWH-018 activity), Emax: triplicates; for EC50: EC50, 8 concentrations 20 µg/mL to 76 or 9.5 ng/mL, normalized to JWH-018 between runs; for Potency retained, % of the potency of the parent: hydroxyindole metabolites versus AM-2201 or JWH-018; for Efficacy (% JWH-018 activity), Emax: Emax from dose-response curves, normalized to JWH-018 at 20 µg/mL
Sequence of hCB1 receptor (P21554 whole entry): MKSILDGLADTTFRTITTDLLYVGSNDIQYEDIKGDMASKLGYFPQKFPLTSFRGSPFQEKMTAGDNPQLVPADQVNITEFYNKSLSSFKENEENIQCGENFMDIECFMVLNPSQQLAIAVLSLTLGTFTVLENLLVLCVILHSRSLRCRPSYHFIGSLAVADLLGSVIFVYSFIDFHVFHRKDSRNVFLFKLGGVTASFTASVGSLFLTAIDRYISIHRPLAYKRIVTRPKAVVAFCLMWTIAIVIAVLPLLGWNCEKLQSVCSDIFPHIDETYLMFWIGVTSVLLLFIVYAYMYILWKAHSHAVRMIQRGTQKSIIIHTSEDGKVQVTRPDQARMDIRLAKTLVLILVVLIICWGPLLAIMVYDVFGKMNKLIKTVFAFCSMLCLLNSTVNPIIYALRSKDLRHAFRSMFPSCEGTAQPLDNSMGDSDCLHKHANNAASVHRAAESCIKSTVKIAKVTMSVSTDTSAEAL

CB1 receptor = details: cited from earlier work
[1] = tested on: serotonin receptor 5-HT2A; set-up: method as in PMID 27779402, PMID 33160102, PMID 21755008; details: cited from earlier work

SMILES	Emax (hCB1 receptor) [%]	EC50 (hCB1 receptor)	further results
O=C(c1cccc2ccccc12)c1nn(CCCCCO)c2ccccc12 [5-OH pentyl THJ-018]	67.3	274 nM	–
CCCCCn1cc(C(=O)c2cccc3ccccc23)c2ccccc21 [JWH-018, 1-naphthalenyl(1-pentyl-1H-indol-3-yl)-methanone, reference compound]	102	42.4 nM	hCB1 activity in other in vitro studies, in words (CB1 receptor): agonist at nanomolar concentrations
O=C(c1cccc2ccccc12)c1cn(CCCCCF)c2ccc(O)cc12 [5-OH indole AM-2201]	93.4	306 nM	Potency retained, % of the potency of the parent (hCB1 receptor): over 12%
CCCC(O)Cn1cc(C(=O)c2cccc3ccccc23)c2ccccc21 (stereo not drawn) [2-OH pentyl JWH-018]	82	750 nM	–
O=C(O)CCCCn1nc(C(=O)c2cccc3ccccc23)c2ccccc21 [Pentanoic acid THJ-018]	11.7	–	–
O=C(c1cccc2ccccc12)c1nn(CC(O)CCCF)c2ccccc12 (stereo not drawn) [2-OH-pentyl THJ-2201]	87	403 nM	–
CCCCCn1cc(C(=O)c2cccc3ccccc23)c2cccc(O)c21 [7-OH indole JWH-018]	< 20	–	Activity on the CB1 receptor in words (CB1 receptor): active; Efficacy (% JWH-018 activity), Emax (hCB1 receptor): 15.81 % JWH-018 activity
CCCCCn1cc(C(=O)c2cccc3ccccc23)c2c(O)cccc21 [4-OH indole JWH-018]	89.8	83.6 nM	Activity on the CB1 receptor in words (CB1 receptor): active; Potency retained, % of the potency of the parent (hCB1 receptor): 51%
CCC(O)CCn1nc(C(=O)c2cccc3ccccc23)c2ccccc21 (stereo not drawn) [3-OH pentyl THJ-018]	99.8	202 nM	–
CCCCCn1nc(C(=O)c2cccc3ccccc23)c2ccccc21 [THJ-018, 1-naphthalenyl(1-pentyl-1H-indazol-3-yl)-methanone, reference compound]	96.4	48.8 nM	Efficacy (% JWH-018 activity), Emax (hCB1 receptor): 96.34 % JWH-018 activity
O=C(c1cccc2ccccc12)c1nn(CCCCCF)c2ccccc12 [THJ-2201, [1-(5-fluoropentyl)-1H-indazol-3-yl]-1-naphthalenyl-methanone, reference compound]	92.8	30.7 nM and 30.6 nM	–
O=C(c1cccc2ccccc12)c1cn(CCCCCF)c2cccc(O)c12 [4-OH indole AM-2201]	94.6	44 nM and 43.7 nM	Potency retained, % of the potency of the parent (hCB1 receptor): 83%
CC(O)CCCn1cc(C(=O)c2cccc3ccccc23)c2ccccc21 (stereo not drawn) [4-OH pentyl JWH-018]	105	288 nM	hCB1 activity in other in vitro studies, in words (CB1 receptor): active metabolites
O=C(c1cccc2ccccc12)c1cn(CCCCCF)c2cc(O)ccc12 [6-OH indole AM-2201]	94	122 nM	Efficacy (% JWH-018 activity), Emax (hCB1 receptor): 94.04 % JWH-018 activity; Potency retained, % of the potency of the parent (hCB1 receptor): over 12%
O=C(c1cccc2ccccc12)c1cn(CCCCCF)c2c(O)cccc12 [7-OH indole AM-2201]	110	282 nM	Efficacy (% JWH-018 activity), Emax (hCB1 receptor): 109.80 % JWH-018 activity; Potency retained, % of the potency of the parent (hCB1 receptor): over 12%
CCCCCn1cc(C(=O)c2cccc3ccccc23)c2cc(O)ccc21 [5-OH indole JWH-018]	88.9	1130 nM	Activity on the CB1 receptor in words (CB1 receptor): active; Potency retained, % of the potency of the parent (hCB1 receptor): 4%

SMILES	Emax (hCB1 receptor) [%]	EC50 (hCB1 receptor)	further results
O=C(O)CCCCn1cc(C(=O)c2cccc3ccccc23)c2ccccc21 [Pentanoic acid JWH-018]	0.23	–	hCB1 activity in other in vitro studies, in words (CB1 receptor): inactive
O=C(c1cccc2ccccc12)c1nn(CCC(O)CCF)c2ccccc12 (stereo not drawn) [3-OH-pentyl THJ-2201]	101	159 nM	–
CCCCCn1c(O)c(C(=O)c2cccc3ccccc23)c2ccccc21 [2-OH indole JWH-018]	-0.38	–	–
O=C(c1cccc2ccccc12)c1cn(CCCCCO[C@@H]2O[C@H](C(=O)O)[C@@H](O)[C@H](O)[C@H]2O)c2ccccc12 [reference compound]	–	–	Activity on hCB1 in words (CB1 receptor): neutral antagonist
O=C(c1cccc2ccccc12)c1cn(CCCCCO)c2ccccc12 [5-OH pentyl JWH-018]	63.1	178 nM	hCB1 activity in other in vitro studies, in words (CB1 receptor): active metabolites; hCB1 activity class in words (full agonist, partial agonist, inactive) (hCB1 receptor; less than 20% efficacy regarded as inactive): partial agonist
O=C(c1cccc2ccccc12)c1cn(CC(O)CCCF)c2ccccc12 (stereo not drawn) [2-OH pentyl AM-2201]	95.1	375 nM	–
O=C(c1cccc2ccccc12)c1cn(CCCC(O)CF)c2ccccc12 (stereo not drawn) [4-OH pentyl AM-2201]	97.1	63.6 nM	–
CCCCCn1cc(C(=O)O)c2ccccc21 [carboxylic acid PB-22, reference compound]	–	–	CB1 / hCB1 activity in words (CB1 receptor; in vivo rat model and in vitro): inactive; Activation of the serotonin receptor 5-HT2A in words [1]: activated
CCCCCn1cc(C(=O)c2cccc3ccccc23)c2ccc(O)cc21 [6-OH indole JWH-018]	59	460 nM	Activity on the CB1 receptor in words (CB1 receptor): active; hCB1 activity in other in vitro studies, in words (CB1 receptor): significantly less Emax than its 5-hydroxy isomer; Efficacy (% JWH-018 activity), Emax (hCB1 receptor): 59.31 % JWH-018 activity; Potency retained, % of the potency of the parent (hCB1 receptor): 4%
CCCC(O)Cn1nc(C(=O)c2cccc3ccccc23)c2ccccc21 (stereo not drawn) [2-OH pentyl THJ-018]	93.6	1110 nM	–
O=C(c1cccc2ccccc12)c1nn(CCCC(O)CF)c2ccccc12 (stereo not drawn) [4-OH-pentyl THJ-2201]	99.2	13.7 nM	Potency increase versus the parent SC (hCB1 receptor; metabolite more potent than parent): 2.2 ×
CC(O)CCCn1nc(C(=O)c2cccc3ccccc23)c2ccccc21 (stereo not drawn) [4-OH pentyl THJ-018]	98.5	175 nM	–
O=C(c1cccc2ccccc12)c1cn(CCC(O)CCF)c2ccccc12 (stereo not drawn) [3-OH pentyl AM-2201]	100	221 nM	–
CCC(O)CCn1cc(C(=O)c2cccc3ccccc23)c2ccccc21 (stereo not drawn) [3-OH pentyl JWH-018]	96	3510 nM	–
O=C(c1cccc2ccccc12)c1c(O)n(CCCCCF)c2ccccc12 [2-OH indole AM-2201]	0.26	–	–
O=C(c1cccc2ccccc12)c1cn(CCCCCF)c2ccccc12 [AM-2201, [1-(5-fluoropentyl)-1H-indol-3-yl]-1-naphthalenyl-methanone, reference compound]	99.7	36 nM and 36.4 nM	–
